From ChEMBL document CHEMBL6109139, “Rational Design of the First Dual Agonist at Trace Amine-Associated Receptor 1 and 5-HT2C Receptors Based on Binding Pocket Similarity for the Treatment of Schizophrenia and Alzheimer's Disease-Related Psychosis” (J Med Chem, 2025)
pEC50, pIC50: −log10 of the molar value. Activity calls are given as the source filed them. The rule behind the calls is not given here.

Experiments:
[1] = target: T1, 5-hydroxytryptamine receptor 2C (Homo sapiens, UniProt P28335); assay: Agonist activity at recombinant human 5-HT2CR expressed in HEK293 cells incubated for 2 hrs by FLIPR calcium assay; assay type: functional, cell-based
T1 sequence (P28335 whole entry): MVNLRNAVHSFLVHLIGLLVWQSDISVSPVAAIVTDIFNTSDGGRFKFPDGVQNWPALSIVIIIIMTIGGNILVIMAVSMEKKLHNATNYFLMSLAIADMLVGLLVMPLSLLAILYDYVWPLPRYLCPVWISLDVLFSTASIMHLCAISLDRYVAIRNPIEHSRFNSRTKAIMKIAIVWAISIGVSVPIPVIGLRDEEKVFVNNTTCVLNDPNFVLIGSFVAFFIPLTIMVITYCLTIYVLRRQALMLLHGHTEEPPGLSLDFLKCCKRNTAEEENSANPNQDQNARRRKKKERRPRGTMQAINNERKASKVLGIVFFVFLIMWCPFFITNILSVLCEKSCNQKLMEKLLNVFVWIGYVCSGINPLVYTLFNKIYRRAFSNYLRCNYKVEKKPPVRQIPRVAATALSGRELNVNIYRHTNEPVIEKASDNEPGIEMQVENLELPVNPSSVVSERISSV

[2] = target: Cytochrome P450 2B6 (Homo sapiens, UniProt P20813); assay: Inhibition of CYP2B6 in human liver microsomes in presence of NADPH by LC-MS/MS analysis; assay type: ADME, Microsome
Cytochrome P450 2B6, sequence (P20813 whole entry): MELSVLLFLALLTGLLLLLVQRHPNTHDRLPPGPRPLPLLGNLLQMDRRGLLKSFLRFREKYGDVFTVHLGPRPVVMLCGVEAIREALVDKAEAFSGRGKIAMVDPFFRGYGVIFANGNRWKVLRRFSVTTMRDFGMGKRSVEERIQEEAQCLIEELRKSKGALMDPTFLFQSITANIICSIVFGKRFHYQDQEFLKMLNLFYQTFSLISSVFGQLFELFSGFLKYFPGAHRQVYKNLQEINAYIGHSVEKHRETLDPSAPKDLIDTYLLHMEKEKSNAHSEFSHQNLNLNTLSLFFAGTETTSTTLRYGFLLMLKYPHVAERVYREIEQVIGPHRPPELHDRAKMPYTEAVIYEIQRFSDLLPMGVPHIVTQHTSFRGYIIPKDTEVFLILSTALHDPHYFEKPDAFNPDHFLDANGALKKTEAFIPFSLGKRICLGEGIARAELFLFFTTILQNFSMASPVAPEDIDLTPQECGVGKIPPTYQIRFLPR

[3] = target: Cytochrome P450 2C8 (Homo sapiens, UniProt P10632); assay: Inhibition of CYP2C8 in human liver microsomes in presence of NADPH by LC-MS/MS analysis; assay type: ADME, Microsome
Cytochrome P450 2C8, sequence (P10632 whole entry): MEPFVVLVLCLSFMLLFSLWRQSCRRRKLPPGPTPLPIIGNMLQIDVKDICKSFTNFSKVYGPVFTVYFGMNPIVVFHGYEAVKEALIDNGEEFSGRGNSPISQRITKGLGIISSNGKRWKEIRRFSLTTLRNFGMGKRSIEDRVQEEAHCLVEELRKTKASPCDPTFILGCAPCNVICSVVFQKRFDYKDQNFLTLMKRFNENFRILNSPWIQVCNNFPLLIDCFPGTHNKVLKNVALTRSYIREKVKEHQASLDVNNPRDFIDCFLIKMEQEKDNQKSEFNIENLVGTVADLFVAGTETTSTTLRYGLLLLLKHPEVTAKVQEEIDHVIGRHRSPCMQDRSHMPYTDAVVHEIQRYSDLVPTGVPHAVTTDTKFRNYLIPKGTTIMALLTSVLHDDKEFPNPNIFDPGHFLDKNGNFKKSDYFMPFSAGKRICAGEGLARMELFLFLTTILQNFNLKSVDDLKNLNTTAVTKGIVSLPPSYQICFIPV

[4] = Ratio of drug concentration in male Sprague-Dawley rat brain to plasma at 5 mg/kg, IG measured after 0.25 hrs by LC-MS/MS analysis; assay type: ADME, organism-based; conditions: brain and plasma, po, read-out: BPR
[5] = Ratio of drug concentration in male Sprague-Dawley rat brain to plasma at 5 mg/kg, IG measured after 1 hrs by LC-MS/MS analysis; assay type: ADME, organism-based; conditions: brain and plasma, po, read-out: BPR
[6] = test system: Mus musculus; assay: Antidepressant activity in chronic social defeat stress induced depressive C57BL/6J mouse model assessed as increase in time of interaction zone administered intragastrically measured after 15 mins by open field test; assay type: functional, organism-based; conditions: dose 0.5-2 mg/kg
[7] = test system: Mus musculus; assay: Antipsychotic activity in amyloid beta (1 to 42) induced hyperlocomotion in mouse model assessed as decrease in total distance traveled at 10 mg/kg by open field test; assay type: functional, organism-based
[8] = target: Trace amine-associated receptor 1 (Rattus norvegicus) (UniProt Q923Y9); assay: Agonist activity at rat TAAR1 by measuring maximum efficacy relative to control; assay type: functional; conditions: filed as agonist
Trace amine-associated receptor 1 (Rattus norvegicus), sequence (Q923Y9 whole entry): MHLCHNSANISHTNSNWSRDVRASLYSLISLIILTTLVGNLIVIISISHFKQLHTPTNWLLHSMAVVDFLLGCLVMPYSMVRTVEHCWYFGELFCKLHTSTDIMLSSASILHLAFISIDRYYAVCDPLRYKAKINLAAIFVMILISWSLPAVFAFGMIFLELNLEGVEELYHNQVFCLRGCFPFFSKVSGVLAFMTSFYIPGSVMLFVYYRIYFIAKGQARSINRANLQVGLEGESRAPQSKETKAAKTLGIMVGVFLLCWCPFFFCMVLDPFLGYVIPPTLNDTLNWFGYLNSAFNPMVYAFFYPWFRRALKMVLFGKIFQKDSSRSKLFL

[9] = target: 5-hydroxytryptamine receptor 2C (Rattus norvegicus) (UniProt P08909); assay: Agonist activity at rat 5-HT2CR by measuring maximum efficacy relative to control; assay type: functional; conditions: filed as agonist
5-hydroxytryptamine receptor 2C (Rattus norvegicus), sequence (P08909 whole entry): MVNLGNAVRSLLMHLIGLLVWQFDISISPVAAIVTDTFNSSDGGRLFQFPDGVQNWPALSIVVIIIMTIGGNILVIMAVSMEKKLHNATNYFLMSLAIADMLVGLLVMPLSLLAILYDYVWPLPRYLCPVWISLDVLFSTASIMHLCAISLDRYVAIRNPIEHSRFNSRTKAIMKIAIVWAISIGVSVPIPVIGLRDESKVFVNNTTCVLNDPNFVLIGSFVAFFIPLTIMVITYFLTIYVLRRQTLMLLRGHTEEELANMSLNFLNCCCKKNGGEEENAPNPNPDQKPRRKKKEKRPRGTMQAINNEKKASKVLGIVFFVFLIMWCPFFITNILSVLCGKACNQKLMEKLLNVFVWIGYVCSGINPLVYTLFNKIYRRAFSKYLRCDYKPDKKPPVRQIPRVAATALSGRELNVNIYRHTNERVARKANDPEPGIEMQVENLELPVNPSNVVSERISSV

[10] = target: 5-hydroxytryptamine receptor 1A (Homo sapiens, UniProt P08908); assay: Agonist activity at human 5-HT1A expressed in CHO cells coexpressing Galpha15 by FLIPR calcium assay; assay type: functional, cell-based
5-hydroxytryptamine receptor 1A, sequence (P08908 whole entry): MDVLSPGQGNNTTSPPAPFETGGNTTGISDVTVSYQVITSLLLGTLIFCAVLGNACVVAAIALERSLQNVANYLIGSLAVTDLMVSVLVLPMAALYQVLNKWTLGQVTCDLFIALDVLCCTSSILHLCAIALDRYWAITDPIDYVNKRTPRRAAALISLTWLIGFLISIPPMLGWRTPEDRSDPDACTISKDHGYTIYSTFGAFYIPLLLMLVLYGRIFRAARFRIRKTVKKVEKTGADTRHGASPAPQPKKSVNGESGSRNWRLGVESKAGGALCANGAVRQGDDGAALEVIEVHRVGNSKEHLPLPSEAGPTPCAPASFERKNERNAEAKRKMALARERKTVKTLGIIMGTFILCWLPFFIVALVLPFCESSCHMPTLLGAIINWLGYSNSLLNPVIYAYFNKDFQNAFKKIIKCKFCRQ

[11] = target: 5-hydroxytryptamine receptor 3A (Homo sapiens) (UniProt P46098); assay: Binding affinity to 5-HT3 (unknown origin) at 10 uM by radioligand binding assay relative to control
5-hydroxytryptamine receptor 3A (Homo sapiens), sequence (P46098 whole entry): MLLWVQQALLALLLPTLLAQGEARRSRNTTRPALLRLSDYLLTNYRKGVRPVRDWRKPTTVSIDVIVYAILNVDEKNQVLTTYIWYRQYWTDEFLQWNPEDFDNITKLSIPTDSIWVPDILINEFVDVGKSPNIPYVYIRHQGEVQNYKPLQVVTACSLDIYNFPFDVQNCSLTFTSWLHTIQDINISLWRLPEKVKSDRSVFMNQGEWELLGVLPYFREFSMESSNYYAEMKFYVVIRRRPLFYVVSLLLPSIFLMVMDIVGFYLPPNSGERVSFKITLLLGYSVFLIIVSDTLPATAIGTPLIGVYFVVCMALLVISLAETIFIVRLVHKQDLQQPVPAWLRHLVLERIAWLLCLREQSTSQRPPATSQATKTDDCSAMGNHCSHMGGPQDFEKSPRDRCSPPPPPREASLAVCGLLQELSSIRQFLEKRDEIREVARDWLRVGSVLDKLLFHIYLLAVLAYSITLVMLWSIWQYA

[12] = target: Androgen receptor (Homo sapiens) (UniProt P10275); assay: Binding affinity to AR (unknown origin) at 10 uM by radioligand binding assay relative to control
Androgen receptor (Homo sapiens), sequence (P10275 whole entry): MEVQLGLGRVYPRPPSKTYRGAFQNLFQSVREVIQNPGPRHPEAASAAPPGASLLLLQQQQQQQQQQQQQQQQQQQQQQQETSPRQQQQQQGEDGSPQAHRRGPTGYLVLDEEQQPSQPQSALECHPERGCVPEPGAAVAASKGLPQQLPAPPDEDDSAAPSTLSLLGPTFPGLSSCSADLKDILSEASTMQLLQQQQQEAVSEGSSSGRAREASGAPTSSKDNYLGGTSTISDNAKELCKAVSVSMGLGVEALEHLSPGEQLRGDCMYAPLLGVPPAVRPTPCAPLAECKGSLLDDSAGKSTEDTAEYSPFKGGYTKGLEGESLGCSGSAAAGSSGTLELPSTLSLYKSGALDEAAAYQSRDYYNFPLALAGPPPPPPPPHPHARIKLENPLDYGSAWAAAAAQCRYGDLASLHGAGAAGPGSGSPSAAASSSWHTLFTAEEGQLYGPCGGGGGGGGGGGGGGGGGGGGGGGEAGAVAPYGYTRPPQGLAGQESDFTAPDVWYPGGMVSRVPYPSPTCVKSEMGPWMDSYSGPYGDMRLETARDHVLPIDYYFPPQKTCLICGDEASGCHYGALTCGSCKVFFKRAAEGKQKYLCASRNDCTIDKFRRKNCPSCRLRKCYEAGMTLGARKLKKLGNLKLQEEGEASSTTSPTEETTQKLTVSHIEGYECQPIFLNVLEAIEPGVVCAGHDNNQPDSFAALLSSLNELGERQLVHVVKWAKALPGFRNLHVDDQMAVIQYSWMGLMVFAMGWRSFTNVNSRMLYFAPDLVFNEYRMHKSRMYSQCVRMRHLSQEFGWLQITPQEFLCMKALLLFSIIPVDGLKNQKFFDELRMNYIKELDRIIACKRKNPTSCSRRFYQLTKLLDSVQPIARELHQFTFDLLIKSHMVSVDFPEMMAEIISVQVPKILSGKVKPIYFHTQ

[13] = target: Prostaglandin G/H synthase 1 (Homo sapiens) (UniProt P23219); assay: Binding affinity to COX1 (unknown origin) at 10 uM by radioligand binding assay relative to control
Prostaglandin G/H synthase 1 (Homo sapiens), sequence (P23219 whole entry): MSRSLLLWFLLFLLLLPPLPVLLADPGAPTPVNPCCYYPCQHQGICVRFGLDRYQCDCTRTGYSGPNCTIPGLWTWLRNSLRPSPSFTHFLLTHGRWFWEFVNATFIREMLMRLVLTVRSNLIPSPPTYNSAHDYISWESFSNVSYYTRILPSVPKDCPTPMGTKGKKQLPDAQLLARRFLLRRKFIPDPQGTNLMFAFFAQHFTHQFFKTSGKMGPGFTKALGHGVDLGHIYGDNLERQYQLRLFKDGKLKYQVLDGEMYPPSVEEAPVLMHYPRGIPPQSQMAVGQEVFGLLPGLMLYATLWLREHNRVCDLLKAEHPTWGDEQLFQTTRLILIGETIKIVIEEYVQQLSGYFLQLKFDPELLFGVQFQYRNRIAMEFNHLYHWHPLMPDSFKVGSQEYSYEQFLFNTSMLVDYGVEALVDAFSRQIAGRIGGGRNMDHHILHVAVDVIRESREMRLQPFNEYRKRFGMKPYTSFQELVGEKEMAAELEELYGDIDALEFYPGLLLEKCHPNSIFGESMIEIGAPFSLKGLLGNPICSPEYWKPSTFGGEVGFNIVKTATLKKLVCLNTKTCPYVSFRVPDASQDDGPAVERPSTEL

[14] = Mutagenicity in Salmonella typhimurium TA97a by Ames test; assay type: toxicity; conditions: salmonella enterica subsp. enterica serovar typhimurium
[15] = Cardiotoxicity in conscious cynomolgus monkey assessed as normal spontaneous movement at 3.125 to 12.5 mg/kg, IG; assay type: toxicity, organism-based, Macaca fascicularis; conditions: in vivo, po, dose 3.125-12.5 mg/kg
[16] = Cardiotoxicity in conscious cynomolgus monkey assessed as change in systolic pressure at 3.125 to 12.5 mg/kg, IG measured within 25 hrs; assay type: toxicity, organism-based, Macaca fascicularis; conditions: in vivo, po, dose 3.125-12.5 mg/kg
[17] = Cardiotoxicity in conscious cynomolgus monkey assessed as change in diastolic pressure at 3.125 to 12.5 mg/kg, IG measured within 25 hrs; assay type: toxicity, organism-based, Macaca fascicularis; conditions: in vivo, po, dose 3.125-12.5 mg/kg
[18] = Toxicity in Sprague-Dawley rat assessed as catalepsy 2.5 to 7.5 mg/kg, po administered once daily for 4 weeks; assay type: organism-based; conditions: in vivo, 672 h, dose 2.5-7.5 mg/kg
[19] = Toxicity in male Sprague-Dawley rat assessed as suppression of body weight gain at 7.5 mg/kg, po administered once daily for 4 weeks and measured weekly twice; assay type: organism-based; conditions: in vivo, 672 h
[20] = Toxicity in male Sprague-Dawley rat assessed as irritability at 7.5 mg/kg, po administered once daily for 4 weeks; assay type: organism-based; conditions: in vivo, 672 h
[21] = Toxicity in male Sprague-Dawley rat assessed as irritability at 2.5 mg/kg, po administered once daily for 4 weeks; assay type: organism-based; conditions: in vivo, 672 h
[22] = Toxicity in female Sprague-Dawley rat assessed as irritability at 2.5 mg/kg, po administered once daily for 4 weeks and measured after 4 weeks; assay type: organism-based; conditions: in vivo, 1344 h, time 8 weeks
[23] = Toxicity in female Sprague-Dawley rat assessed as change in clinical chemistry at 2.5 to 7.5 mg/kg, po administered once daily for 4 weeks and measured after 4 weeks; assay type: organism-based; conditions: in vivo, 1344 h, dose 2.5-7.5 mg/kg, time 8 weeks
[24] = Toxicity in female Beagle dog assessed as change in body weight at 0.75 to 2.5 mg/kg, IG administered once daily for 4 weeks and measured after 4 weeks; assay type: organism-based, Canis lupus familiaris; conditions: in vivo, po, 1344 h, dose 0.75-2.5 mg/kg, time 8 weeks
[25] = Toxicity in male Beagle dog assessed as change in food consumption at 0.75 to 2.5 mg/kg, IG administered once daily for 4 weeks and measured after 4 weeks; assay type: organism-based, Canis lupus familiaris; conditions: in vivo, po, 1344 h, dose 0.75-2.5 mg/kg, time 8 weeks
[26] = Toxicity in female Beagle dog assessed as change in food consumption at 0.75 to 2.5 mg/kg, IG administered once daily for 4 weeks and measured after 4 weeks; assay type: organism-based, Canis lupus familiaris; conditions: in vivo, po, 1344 h, dose 0.75-2.5 mg/kg, time 8 weeks
[27] = Toxicity in male Beagle dog assessed as change in hematology at 0.75 to 2.5 mg/kg, IG administered once daily for 4 weeks and measured after 4 weeks; assay type: organism-based, Canis lupus familiaris; conditions: in vivo, po, 1344 h, dose 0.75-2.5 mg/kg, time 8 weeks
[28] = Toxicity in male Beagle dog assessed as change in clinical chemistry at 0.75 to 2.5 mg/kg, IG administered once daily for 4 weeks and measured after 4 weeks; assay type: organism-based, Canis lupus familiaris; conditions: in vivo, po, 1344 h, dose 0.75-2.5 mg/kg, time 8 weeks
[29] = Toxicity in female Beagle dog assessed as change in organ weight at 0.75 to 2.5 mg/kg, IG administered once daily for 4 weeks and measured after 4 weeks; assay type: organism-based, Canis lupus familiaris; conditions: in vivo, po, 1344 h, dose 0.75-2.5 mg/kg, time 8 weeks
[30] = Toxicity in female Beagle dog assessed as minimal decrease activity at 2.5 mg/kg, IG administered once daily for 4 weeks; assay type: organism-based, Canis lupus familiaris; conditions: in vivo, po, 672 h
[31] = Toxicity in male Beagle dog assessed as minimal decrease activity at 2.5 mg/kg, IG administered once daily for 4 weeks; assay type: organism-based, Canis lupus familiaris; conditions: in vivo, po, 672 h
[32] = Toxicity in female Beagle dog assessed as minimal decrease activity at 2.5 mg/kg, IG administered once daily for 4 weeks and measured after 4 weeks; assay type: organism-based, Canis lupus familiaris; conditions: in vivo, po, 1344 h, time 8 weeks

Question: With `c1cc2c(s1)[C@@H]1CNCCN1CC2` as the compound, how does the pEC50 [1] read?
Answer: Its pEC50 is 6.61.

Question: What about the pIC50 [2] of the same compound?
Answer: The pIC50 was less than 4.30.

Question: And the pIC50 [3]?
Answer: The pIC50 was less than 4.30.

Question: What about the Kp at 0.25 h [4] of the same compound?
Answer: Its Kp at 0.25 h is 8.45.

Question: What about the Kp at 1 h [5] of the same compound?
Answer: The Kp at 1 h was 6.02.

Question: And the Activity [6]?
Answer: The Activity was “Dose-dependent-effect”.

Question: And the Activity [7]?
Answer: Its Activity is “Active”.

Question: And the Emax [8]?
Answer: The Emax was 99.5%.

Question: What about the Emax [9] of the same compound?
Answer: The Emax was 108%.

Question: And the pEC50 [10]?
Answer: The pEC50 was 4.50.

Question: And the Activity [11]?
Answer: The Activity was 13%.

Question: And the Activity [12]?
Answer: The Activity was -5.37%.

Question: And the Activity [13]?
Answer: Its Activity is 33.3%.

Question: What about the Activity [14] of the same compound?
Answer: The Activity was “Non-toxic”.

Question: And the Activity [15]?
Answer: Its Activity is “Non-toxic”.

Question: And the Activity [16]?
Answer: Its Activity is “Non-toxic”.

Question: What about the Activity [17] of the same compound?
Answer: Its Activity is “Non-toxic”.

Question: What about the Activity [18] of the same compound?
Answer: The Activity was “Non-toxic”.

Question: And the Activity [19]?
Answer: The Activity was “Toxic”.

Question: And the Activity [20]?
Answer: Its Activity is “Toxic”.

Question: And the Activity [21]?
Answer: The Activity was “Toxic”.

Question: What about the Activity [22] of the same compound?
Answer: The Activity was “Non-toxic”.

Question: What about the Activity [23] of the same compound?
Answer: The Activity was “Non-toxic”.

Question: And the Activity [24]?
Answer: The Activity was “Non-toxic”.

Question: What about the Activity [25] of the same compound?
Answer: The Activity was “Non-toxic”.

Question: And the Activity [26]?
Answer: The Activity was “Non-toxic”.

Question: What about the Activity [27] of the same compound?
Answer: Its Activity is “Non-toxic”.

Question: And the Activity [28]?
Answer: The Activity was “Non-toxic”.

Question: And the Activity [29]?
Answer: The Activity was “Non-toxic”.

Question: And the Activity [30]?
Answer: The Activity was “Toxic”.

Question: And the Activity [31]?
Answer: The Activity was “Toxic”.

Question: What about the Activity [32] of the same compound?
Answer: Its Activity is “Non-toxic”.
